Experimental data reported in a melting point compilation (Tetko et al.; mined from patent text by program, amines drawn as free bases though some values may be those of a salt).

| SMILES | melting point |
| --- | --- |
| Nc1nc2c(ncn2Cc2ccoc2)c(=O)[nH]1 | 308 to 310 °C |
| Oc1ccc(C(O)(c2ccccc2)C(CCCCl)c2ccccc2)cc1 (stereo unspecified) | 75 to 78 °C |
| O=C1C=C(Nc2ccccc2F)CCC1 | 116 to 118 °C |
| COc1cc2c(cc1OC)CN(CCCc1ccc(N)cc1)CC2 | 138 °C |
| COc1cc(-c2ncc(C(F)(F)F)cc2F)c(F)cc1Cl | 79 to 80 °C |
| COC(=O)CCCc1cc2nc(Cl)ccc2n1S(=O)(=O)c1cccc2nc(C)sc12 | 138 °C |
| Nc1cccc(C2=NNC(=O)Cc3cc4c(cc32)OCO4)c1 | 118 to 122 °C |
| CCOC(=O)C(NC(=O)CCl)c1cscn1 (stereo unspecified) | 145 to 146 °C |
| O=C(Nc1ccc(Br)cc1CBr)C(F)(F)F | 133 to 135 °C |
| CNC(=O)C1=CC(CF)(CF)Oc2ccc(Cl)cc21 | 175 to 176 °C |
| Cc1ccc2c(c1)Cn1nnnc1C(=S)N2 | 293 to 296 °C |
| O=C(O)Cc1ccc2c(c1)sc1ccc(Cl)cc12 | 220 to 221 °C |
| CCCCC1(CCCC)Cc2c(O)cccc2C1=O | 114 to 115 °C |
| CC(=O)c1c(O)ccc2[nH]ncc12 | 188 to 191 °C |
| CCN(C(=O)C(C)n1c(=O)n(C)c2nc(-c3ccccc3)ncc21)c1ccccc1 (stereo unspecified) | 150 to 151 °C |
| CCCCC(=O)Nc1c(C(=O)c2cccc(Cl)c2)[nH]c2cc(Cl)ccc12 | 159 to 160 °C |
| CC(=O)OCC(OC(C)=O)C(OC(C)=O)C(C=O)OC(C)=O (stereo unspecified) | 161 to 162 °C |
| Cc1c[nH]c2c1CC1CNCCC1C2 (stereo unspecified) | 151 to 153 °C |
| O=S1(=O)NN=Cc2ccsc21 | 125 to 127 °C |
| CC(C)(O)Cn1c(CO)nc2c(N)nc3cc(-c4cccc(C(=O)N5CCOCC5)c4)cnc3c21 | 153 to 155 °C |
| CON(C)C(=O)c1ccc(-c2ccc(C)cc2)o1 | 54 to 58 °C |
| OCCC(=C(c1ccccc1)c1ccc(OCCBr)cc1)c1ccccc1 | 133 to 137 °C |
| O=[N+]([O-])c1cc(Cl)c(CO)c(Cl)c1 | 111 to 114 °C |
| Nc1nc(Cl)nc2c1ncn2COCCO | 188 to 190 °C |
| CC(=O)Nc1ccc(C(=O)Oc2ccccc2)c(Cl)c1 | 84 to 86 °C |
| COc1ccc2c(c1)CCC1C2CCC2(C)C(=O)CC(C)(C)C12 (stereo unspecified) | 145 to 148 °C |

| SMILES | melting point |
| --- | --- |
| CCOC(=O)CCNC(=O)CN1CCOc2ccc(NC(=O)NCc3ccccc3)cc2C1=O | 70 to 75 °C |
| COc1ccc2c(c1)NCc1ccccc1O2 | 110 to 112 °C |
| C=C(c1cccnc1)c1c(CC(=O)OC)[nH]c2ccccc12 | 154 to 157 °C |
| Cc1n[nH]c(C)c1Oc1cc(Cl)cc(C#N)c1 | 136 to 140 °C |
| Cc1ccc2cc(C(=O)O)oc2c1C | 235 to 237 °C |
| O=C1Cc2cccc(Oc3ccccc3O)c2O1 | 150 to 152 °C |
| CNC12CCCCC1CCc1cc(O)ccc12 (stereo unspecified) | 191 °C |
| NC(=O)c1c(C(=O)O)cnn1-c1ccc(Cl)cc1 | 249 to 250 °C |
| COC(=O)c1c(-c2ccc(C#N)cc2)cn(-c2ccc(Br)cc2)c1C(=O)OC | 178 to 180 °C |
| CS(=O)(=O)c1ccc(-c2ccc(Cl)nc2-c2ccc(F)cc2)cc1 | 192 °C |
| CN1Cc2ccc(COc3cccc4c3CN(C3CCC(=O)NC3=O)C4=O)cc2C1 (stereo unspecified) | 262 to 264 °C |
| CC(=O)OCC(=O)[C@@]1(O)CCc2c(O)c3c(c(O)c2C1)C(=O)c1cccc(O)c1C3=O | 215 to 217 °C |
| Fc1cccc2sc(S)nc12 | 180 °C |
| O=C1COc2ccc(CCCCCc3ccc4c(c3)NC(=O)CO4)cc2N1 | 189 to 190 °C |
| Cc1c(C)c2c(c(C)c1NC(=O)C(=O)C(C)(C)C)C(c1ccc(C(C)C)cc1)CO2 (stereo unspecified) | 142 to 143 °C |
| O=C1N[C@H](CO)C[C@H]1C1CCCCC1 | 96 to 97 °C |
| COc1cc(COc2nn(-c3ccccc3)cc2C=O)ccc1OCc1nc(-c2cccc(C#N)c2)oc1C | 161 to 162 °C |
| COc1cc(C(=O)NCc2ccccc2)cc(NC(=O)c2ccccc2)n1 | 132 to 133 °C |
| CS(=O)(=O)Nc1ccc(O)cn1 | 246 to 247 °C |
| O=C(Nc1ccc(I)cc1)OCc1ccccc1 | 132 to 134 °C |
| O=S(=O)(c1ccc(I)cc1)N1CCCC(c2ccc(Cl)c(C(F)(F)F)c2)=N1 | 153 to 154 °C |
| Cn1c(CN2C(=O)C3(COc4cc5c(cc43)OCCO5)c3ccccc32)nc2ccccc21 (stereo unspecified) | > 240 °C |
| COc1ccc2c(c1)Oc1ccc(Cl)cc1NC2 | 113 to 115 °C |
| C=CCc1c(NC(=O)C(F)(F)F)ccc2c(=O)cc(C(=O)OCC)oc12 | 136 to 137 °C |
| COC(=O)NNC(=S)Cc1ccc(C(C)(C)C)cc1 | 93.5 to 94 °C |
| CC1(C)CCC(C)(C)c2cc3cc(-c4ccc(C(=O)O)c(Cl)c4)ccc3cc21 | 213 to 215 °C |

| SMILES | melting point |
| --- | --- |
| CCOC(=O)C(=CNc1sc(-c2ccc(OC)cc2)c(C)c1C(=O)O)C(=O)OCC | 184 to 187 °C |
| NC(=O)N1C(=O)C(C(=O)c2ccco2)c2ccc(F)cc21 (stereo unspecified) | 231 to 235 °C |
| O=C(O)[C@@H]1CC2(CN1C(=O)CP(=O)(O)CCCCc1ccccc1)SCCS2 | 106 to 107 °C |
| Cc1cc(O)c2cccc(OCc3ccccc3)c2n1 | 155 to 164 °C |
| CC(NC(=O)CCBr)c1ccccc1 (stereo unspecified) | 69 to 70 °C |
| CC(C)(O)C(=O)c1ccc(Oc2ccc(C(=O)C(C)(C)O)cc2)cc1 | 96 to 99 °C |
| NS(=O)(=O)c1ccc(S(=O)(=O)N2CCC(=O)CC2)cc1 | 194 to 195 °C |
| CCOCC1C(C(=O)O)C1(C)C (stereo unspecified) | 40 to 40.5 °C |
| Nc1nc(=O)n(S(=O)(=O)c2ccc(Cl)cc2)cc1F | 174 to 178 °C |
| Cc1c(C2(N(C)C)CCC(c3cccc(F)c3)(N(C)C)CC2)[nH]c2ccccc12 (stereo unspecified) | 126 to 132 °C |
| CCCn1nc(-c2ccc(F)cc2)c(-c2ccc(S(C)(=O)=O)cc2)cc1=O | 155 to 157 °C |
| CCCCc1nc(=O)c2cc(-c3nnn(C(c4ccccc4)(c4ccccc4)c4ccccc4)n3)ccc2[nH]1 | 182 °C |
| Cc1cccc(-c2[nH]c(C(C)C)nc2-c2ccc(F)c(-c3ccc(C(=O)NC4CCOCC4)cc3)c2)n1 | 130 to 132 °C |
| O=C1c2cc(Cl)ccc2N(N2CCOCC2)C2=NCCN12 | 238 to 239 °C |
| C[C@@H](n1cnc2c(cnn2-c2ccc(Cl)cc2)c1=O)[C@](O)(Cn1cncn1)c1ccc(F)cc1F | 237 to 238 °C |
| O=C(O)c1nn(Cc2cccc(O)c2)c2c1CCc1cc(OCc3cncnc3)ccc1-2 | 251 to 256 °C |
| OCC(O)CN1CCN(C(c2ccccc2)c2ccccc2)CC1 (stereo unspecified) | 125 to 126 °C |
| CCC1CSC(CCc2ccccc2)(Cn2ccnc2)S1 (stereo unspecified) | 115 to 118 °C |
| O[C@H](COc1cccc2[nH]ccc12)CN1CC=C(c2c[nH]c3cccc(F)c23)CC1 | 90 to 95 °C |
| Cc1cc(C)c2c(c1O)C(NS(C)(=O)=O)CC2 (stereo unspecified) | 114 to 116 °C |
| O=C1C=C(c2ccc(Cl)c(Cl)c2)C(=O)N1Nc1ccccc1 | 208 to 210 °C |
| CC(C)(C)c1ccc(C2(N=C=O)CCC3(CC2)OCCO3)cc1 | 103 to 106 °C |
| CCOC(=O)C1=C(COCc2nnn[nH]2)NC(C)=C(C(=O)OC)C1c1ccccc1Cl (stereo unspecified) | 122 to 124 °C |
| CC(C)C[C@H](NCc1ccc(OC(C)(C)C)cc1)C(=O)N1CCN(C(c2ccc(F)cc2)c2ccc(F)cc2)CC1 | 56 to 61 °C |
